# Earlier results in patent publication US20250152701A1, “NKT CELL LIGAND-CONTAINING LIPOSOME COMPOSITION” (RIKEN, priority 2022, published 2025).
# Details: Non Patent Literature 6
structure (smiles),measurement,value
CCCCCCCCCCCCCCCCCCCCCCCCCC(=O)N[C@@H](CO[C@H]1OC(CO)[C@H](O)C(O)C1O)[C@H](O)[C@H](O)CCCCCCCCCCCCCC (stereo partly shown) [KRN7000],anti-tumor activity,extremely strong anti-tumor activity
